Results on six molecules are retold here after patent publication US6066642A, “Dihydropyridine-, pyridine-, benzopyran-4-one- and triazoloquinazoline derivative, their preparation and their use as adenosine receptor antagonists” (priority 1998, dated 2000).

Read-outs that look alike come from different tables or passages of the source. Where only a bound is given, the exact number is not on record here.

Experiment [1] addresses T1, A1 receptors (Rattus norvegicus, UniProt P25099).
T1 sequence (P25099 1-326): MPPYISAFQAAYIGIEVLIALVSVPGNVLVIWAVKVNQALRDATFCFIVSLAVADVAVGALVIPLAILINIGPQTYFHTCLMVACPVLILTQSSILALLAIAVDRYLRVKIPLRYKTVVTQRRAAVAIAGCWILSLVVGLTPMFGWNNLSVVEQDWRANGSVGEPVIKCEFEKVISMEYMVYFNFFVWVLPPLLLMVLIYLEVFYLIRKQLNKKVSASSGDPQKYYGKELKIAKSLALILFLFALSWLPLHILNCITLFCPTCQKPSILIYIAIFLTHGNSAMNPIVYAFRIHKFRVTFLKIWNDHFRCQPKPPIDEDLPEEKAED
The experiment in a line: biochemical. It is filed as binding.
Experimental: ^a Displacement of specific [^3 H] PIA binding in rat brain
percentage of specific binding displaced at 100 μM.

Experiment [2] concerns the target T2, A2a receptors (Rattus norvegicus, UniProt P30543).
T2 construct: Displacement of specific [^3 H]; from tissue; host or cells: rat striatal membranes
The experiment in a line: radioligand binding, displacement of specific [3H]CGS 21680 binding in rat striatal membranes.
Experimental: ^b Displacement of specific [^3 H]
or as a percentage of specific binding displaced at 100 μM.

In experiment [3] the test system is bak protein in HL-60 cells. The experiment in a line: expression of apoptosis-inducing protein bak by immunofluorescence, HL-60 cells. It is filed as cell-based. The protocol: (§1) Cells were fixed as following steps: 10 min with 1% formalin in PBS, 5 min with […] methanol and 2 min with ice cold acetone, then permebilized with 0.1% Nonidet P-40 for 20 min. After the preparation, the specimens were incubated step by step: 10% goat serum in PBS for 20 min, mouse monoclonal anti-bak antibody (5 μg/ml PBS-BSA) for 60 min, Rhodamine (TRITC)-conjugated AffiniPure Goat Anti-mouse IgG (H+L) in PBS-BSA for 60 min. The specimens were washed 3-5 times with PBS after every step. The glass slides were stored at 4° C. in the dark.
(§2) The mechanism of the apoptosis observed in response to either A3 agonists was investigated.

Experiment [4] concerns bak protein in U-937 cells. Kind of experiment: expression of apoptosis-inducing protein bak by immunofluorescence, U-937 cells. In kind it is cell-based. As to the method: as §1, §2
For experiment [5], the system named is adenosine receptor. To be noted: [3H]cyclohexyladenosine and [3H]1,3-diethyl-8-phenylxanthine; cited from earlier work.
Experiment [6] deals with adenosine receptors. To be noted: pancreatic islets; cited from earlier work.
Experiment [7] relates to HL-60 cells. The experiment in a line: live cell counting with trypan blue (cell death/proliferation), HL-60 cells. In kind it is cell-based. The protocol: (§3) The HL-60 cells were maintained in RPMI 1640 supplmented with 10% fetal calf serum, 100 units/ml penicillin, […] streptomycin and 2 mM L-glutamine. The cells were split every third day, and 2 days before each experiment cultures were diluted to 2×10^5 cells/ml. For analysis of DNA content, aliquots of 2 ml were placed into 12-well flat-bottomed plates (Costar, Cambridge, Mass., U.S.A.) containing 2~6 μl test-compound solutions at defined concentrations or 6 μl DMSO (diluting medium). Live cell counting was carried out using 0.1% trypan blue.
(§4) In the latter assay, cell death was studied in HL-60 cells (FIGS. 11A-B) and in U-937 cells (FIGS. 11C-D) over a time course of 9 days. Cells in culture receiving no drug treatment proliferated geometrically until nearly the end of the experiment.

For experiment [8], the system named is U-937 cells. The experiment in a line: live cell counting with trypan blue (cell death/proliferation), U-937 cells. In kind it is cell-based. As to the method:
as §3, §4

Experiment [9] has as its system HL-60 cells. The experiment in a line: in situ end-labeling of fragmented nuclear DNA (TUNEL), HL-60 cells. It is filed as cell-based. The protocol:
(§5) Cells were fixed by immersing slides in 4% methanol-free formaldehyde in PBS at pH 7.4, 4° C., for 25 min. Fixed cells were permeabilized in 0.2% Triton® X-100 in PBS at 4° C. for 5 min. After preincubation with […] Promega equilibration buffer for 10 min at room temperature, the cells were covered with 50 μl TdT incubation buffer and a coverslip and maintained at 37° C. for 60 min inside the dark humidified chamber to protect from dry and direct light. In order to stop the reaction, the coverslip was removed and the slides were immersed in 2×SSC for 15 min at room temperature. The cells were restained by propidium iodide 1 μg/ml in PBS for 15 min. After every step, the cells were rinsed 2-3 times with fresh PBS for 5 min each. Finally, the glass slides were sealed with nail polish. The slides were stored at 4° C. in the dark.
(§6) The evidence that DNA strand breaks, characteristic of apoptosis, are induced by the A3 antagonists was obtained using in situ end-labelingin-situ of fragmented nuclear DNA by terminal deoxynucleotidyl transferase (TUNEL method, Cooke, H., Trends in Biotech., 10, 23 (1992)), which incorporates a fluorescent label at the 3'-ends. […] In the control cultures and in those treated with 10 nM Cl-IB-MECA alone, spontaneous apoptosis occured in only 5-7% of the cells (Table 17). […] The reversal of antagonist-induced apoptosis by the agonist is similar to that observed for the growth curves, except that both agonist and antagonist were applied at lower concentrations.

For experiment [10], the system named is U-937 cells. The experiment in a line: in situ end-labeling of fragmented nuclear DNA (TUNEL), U-937 cells. In kind it is cell-based. The protocol:
as §5, §6

Experiment [11] deals with T3, human A3 receptors (Homo sapiens, UniProt P0DMS8).
T3 construct: expressed in transfected cells; host or cells: HEK-293 cells (membranes)
T3 sequence (P0DMS8 1-318): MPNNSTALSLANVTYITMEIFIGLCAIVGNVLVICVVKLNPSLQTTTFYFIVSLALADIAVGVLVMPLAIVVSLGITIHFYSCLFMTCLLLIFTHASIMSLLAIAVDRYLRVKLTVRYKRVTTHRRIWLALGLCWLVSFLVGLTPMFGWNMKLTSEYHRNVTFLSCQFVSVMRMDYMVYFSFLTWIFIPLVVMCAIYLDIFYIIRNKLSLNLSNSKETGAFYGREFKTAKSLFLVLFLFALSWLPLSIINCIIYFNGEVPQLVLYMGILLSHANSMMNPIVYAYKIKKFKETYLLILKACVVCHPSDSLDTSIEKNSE
Kind of experiment: radioligand binding, displacement of specific [125I]AB-MECA binding at human A3 receptors expressed in HEK-293 cells.
Experimental: A3 receptors expressed in HEK293 cells, in membranes, expressed as
binding displaced at 100 μM.

The target in experiment [12] is T4, rat A3 receptor (Rattus norvegicus, UniProt P28647).
T4 construct: expressed in transfected cells; host or cells: CHO cells (membranes)
T4 sequence (P28647 1-320): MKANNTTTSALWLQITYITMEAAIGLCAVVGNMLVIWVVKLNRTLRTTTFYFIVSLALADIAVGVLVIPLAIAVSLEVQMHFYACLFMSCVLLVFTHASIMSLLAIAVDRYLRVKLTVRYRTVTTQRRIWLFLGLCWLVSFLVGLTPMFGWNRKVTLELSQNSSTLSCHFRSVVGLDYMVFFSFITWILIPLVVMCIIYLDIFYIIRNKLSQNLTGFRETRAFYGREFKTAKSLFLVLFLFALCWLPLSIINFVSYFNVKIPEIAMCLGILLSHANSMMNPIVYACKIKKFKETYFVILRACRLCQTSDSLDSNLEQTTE
Kind of experiment: A3-agonist-elicited inhibition of adenylyl cyclase in membranes from CHO cells stably expressing the rat A3 receptor. In kind it is biochemical. The conditions noted are these: compound 50 μM, 1 μM forskolin.
Experimental: ^a Assayed in membranes from CHO cells stably expressing the rat
A3 receptor in the presence of 1 μM forskolin.

The mark [13] stands for this setting: antagonist 0.5 μM plus 0.01 or 1.0 μM Cl-IB-MECA.
[14] abbreviates: Table 17, antagonist 50 nM plus Cl-IB-MECA 10 nM, 48 hour.
[15] abbreviates: Table 17, antagonist 50 nM, 48 hour.

T2 sequence (P30543 whole entry): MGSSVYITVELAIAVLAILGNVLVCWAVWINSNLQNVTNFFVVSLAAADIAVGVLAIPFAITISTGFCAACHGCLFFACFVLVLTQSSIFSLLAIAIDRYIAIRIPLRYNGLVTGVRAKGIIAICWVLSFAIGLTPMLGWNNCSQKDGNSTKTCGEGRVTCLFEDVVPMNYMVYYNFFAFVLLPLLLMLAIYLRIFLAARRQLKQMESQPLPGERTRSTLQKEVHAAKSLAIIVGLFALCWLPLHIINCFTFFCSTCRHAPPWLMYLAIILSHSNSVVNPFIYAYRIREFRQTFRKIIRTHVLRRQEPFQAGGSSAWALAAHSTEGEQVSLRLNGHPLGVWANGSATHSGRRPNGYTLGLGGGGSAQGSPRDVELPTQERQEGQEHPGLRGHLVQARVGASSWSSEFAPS

Turning to `O=C(Cc1ccccc1)Nc1nc2ccc(Cl)cc2c2nc(-c3ccco3)nn12` [Compound 153, 9-Chloro-2-(2-furyl)-5-phenylacetylamino[1,2,4]triazolo [1,5-c]quinazoline], the Ki was 305 ± 51 nM in experiment [1] (Table 15, [3H]PIA, rat brain membranes, read-out: Ki rA1) and 52 ± 8.8 nM in experiment [2] (Table 15, [3H]CGS 21680, rat striatal membranes, read-out: Ki rA2A). The “expression of bak protein, HL-60” value in experiment [3] (10 nM) was “induced”. Moreover, the “expression of bak protein, U-937” value in [4] (10 nM) is “induced”.

For `COc1ccc(CCN(C)CCCC(C#N)(c2ccc(OC)c(OC)c2)C(C)C)cc1OC` (stereo not drawn) [verapamil], the “effect on adenosine receptor binding” value in [5] is on record as “negligible effects on adenosine receptor binding”. Further, the “interaction with adenosine receptors mediating inhibition of insulin secretion” value in [6] is recorded as “may not interact with adenosine receptors”.

Take `CN1C=CC2=C(CC(=O)O)Cn3nc(-c4ccccc4)nc3C2=C1` [Compound L-249313, 6-carboxymethyl-5,9-dihydro-9-methyl-2-phenyl-[1,2,4]triazolo[5,1-a][2,7]-naphthyridine]: the “inhibition of proliferation, HL-60” value in experiment [7] (0.5 μM alone) is recorded as “general inhibition of proliferation of cells”. Moreover, the “growth curve with A3 antagonist plus Cl-IB-MECA, HL-60” value in experiment [7] (setting [13]) is “the growth curves were nearly coincident with control curves”. Besides, the “inhibition of proliferation, U-937” value in experiment [8] (0.5 μM alone) is reported as “general inhibition of proliferation of cells”. Also, in experiment [8] (setting [13]), the “growth curve with A3 antagonist plus Cl-IB-MECA, U-937” value is listed as “the growth curves were nearly coincident with control curves”. Moreover, in experiment [9] (50 nM, 24 h, approximately), the “fluorescent labeling of apoptotic cells, HL-60” value was 30-40%. Further, in experiment [9] (setting [14]), the “Percentage of apoptotic cells, HL-60, + Cl-IB-MECA” value was 12.0 Percentage. The “Percentage of apoptotic cells, HL-60” value in experiment [9] (setting [15]) is on record as 31.2 Percentage. Moreover, the “fluorescent labeling of apoptotic cells, U-937” value in experiment [10] (50 nM, 24 h, approximately) was 30-40%. The “Percentage of apoptotic cells, U937, + Cl-IB-MECA” value in experiment [10] (setting [14]) worked out at 10.9 Percentage. The “Percentage of apoptotic cells, U937” value in experiment [10] (setting [15]) is reported as 30.8 Percentage. For the same molecule, the “bak labeling, HL-60” value in experiment [3] (24 hours) was “present”. In addition, the “bak labeling, U-937” value in experiment [4] (24 hours) is “present”.

As for `COc1ccc2c(c1)C(=O)[C@H](O)[C@@H](/C=C/c1ccccc1)O2` (relative stereo) [Compound 15], the inhibition at 100 µM in experiment [1] (Table 4, 10^-4 M, read-out: displacement of specific binding rA1) was under 10%; in experiment [2] (Table 4, 10^-4 M, read-out: displacement of specific binding rA2a) it was under 10%. For the same molecule, the rA1/hA3 in [11] was over 8. Further, in experiment [11] (Table 4, [125I]AB-MECA, HEK-293 membranes, read-out: Ki hA3), the inhibitory constant (Ki) is 21100 nM. For the same molecule, the inhibition at 50 µM in experiment [12] (IB-MECA 10^-6 M, read-out: % Inhibition of adenylyl cyclase, IB-MECA (10^-6 M)) was found to be 39.2 ± 3%; in experiment [12] (IB-MECA 10^-7 M, read-out: % Inhibition of adenylyl cyclase, IB-MECA (10^-7 M)) it was 25.9 ± 2.4%.

In the case of `COC(=O)C1=C(C)NC(C)=C(C(=O)OC)C1c1ccccc1[N+](=O)[O-]` [Compound 60, nifedipine], the “effect on adenosine receptor binding” value in experiment [5] is recorded as “potent in reducing the binding”. In addition, in [6], the “interaction with adenosine receptors mediating inhibition of insulin secretion” value is recorded as “may not interact with adenosine receptors”.

For the molecule `COc1ccc([C@@H]2Sc3ccccc3N(CCN(C)C)C(=O)[C@@H]2OC(C)=O)cc1` [diltiazem], the “effect on adenosine receptor binding” value in [5] was “negligible effects on adenosine receptor binding”.

As usually defined, the Ki is a measure of affinity in units of concentration, obtained from inhibition or displacement.
